The subject of assay [1] is M. tuberculosis MDR strain M70. The assay can be described thus: microbe, parasite or virus in culture. In kind it is cell-based, Mycobacterium tuberculosis. Particulars: for MIC: Mycobacterium tuberculosis, read-out: MIC, µg/mL in M.tuberculosis strain M70; for MIC, µg/mL in M.tuberculosis strain M70: MABA assay.
Assay [2] relates to M. tuberculosis MDR strain M28. The assay can be described thus: microbe, parasite or virus in culture. It is filed as cell-based, Mycobacterium tuberculosis. Particulars: for MIC: Mycobacterium tuberculosis, read-out: MIC, µg/mL in M.tuberculosis strain M28; for MIC, µg/mL in M.tuberculosis strain M28: MABA assay.
For assay [3], the system named is M. tuberculosis MDR strain M94. Briefly: microbe, parasite or virus in culture. Particulars: for MIC: Mycobacterium tuberculosis, read-out: MIC, µg/mL in M.tuberculosis strain M94; for MIC, µg/mL in M.tuberculosis strain M94: MABA assay. It is filed as cell-based, Mycobacterium tuberculosis.
Assay [4] concerns M. tuberculosis MDR strain M14. The assay can be described thus: microbe, parasite or virus in culture. The note with it: for MIC: Mycobacterium tuberculosis, read-out: MIC, µg/mL in M.tuberculosis strain M14; for MIC, µg/mL in M.tuberculosis strain M14: MABA assay. In kind it is cell-based, Mycobacterium tuberculosis.
Assay [5] relates to M. tuberculosis MDR strain TN5904. Briefly: microbe, parasite or virus in culture. The note with it: for MIC: Mycobacterium tuberculosis, read-out: MIC, µg/mL in M.tuberculosis strain TN5904; for MIC, µg/mL in M.tuberculosis strain TN5904: MABA assay. It is filed as cell-based, Mycobacterium tuberculosis.
The subject of the next assay is M. tuberculosis H37Rv. Briefly: microbe, parasite or virus in culture. It is filed as cell-based, Mycobacterium tuberculosis. The note with it: for MIC: Mycobacterium tuberculosis, H37RV, read-out: MIC, µg/mL in M.tuberculosis strain H37Rv; for MIC, µg/mL in M.tuberculosis strain H37Rv: MABA assay, drug-susceptible strain H37Rv.
Assay [6] relates to M. tuberculosis MDR strain M70. The arrangement: key: R- resistant; S -susceptible. The note with it: cited from earlier work.
Assay [7] has as its system M. tuberculosis MDR strain M28. Set-up: key: R- resistant; S -susceptible. Particulars: cited from earlier work.
For assay [8], the system named is M. tuberculosis MDR strain M94. Set-up: key: R- resistant; S -susceptible. Particulars: cited from earlier work.
For assay [9], the system named is M. tuberculosis MDR strain M14. Set-up: key: R- resistant; S -susceptible. Particulars: cited from earlier work.
Assay [10] concerns M. tuberculosis MDR strain TN5904. The arrangement: key: R- resistant; S -susceptible. The note with it: cited from earlier work.

The values below come from patent US20230348447A1, “OXAZOLIDINONE COMPOUNDS, LIPOSOME COMPOSITIONS COMPRISING OXAZOLIDINONE COMPOUNDS AND METHOD OF USE THEREOF” (priority 2020, published 2023).

Values after ≈ are worked out from the molar mass of the structure shown.

`Cl.Cn1nnc(-c2ccc(-c3ccc(N4C[C@H](CN)OC4=O)cc3F)cn2)n1` [AKG-3]: the MIC was at most 0.015 µg/mL in assay [1]; 0.06 µg/mL in assay [2]; 0.06 µg/mL in assay [3]; 0.03 µg/mL in assay [4]; 0.06 µg/mL in assay [5]; 0.125 µg/mL with M. tuberculosis H37Rv.

In the case of `CN(C)CCn1nnc(-c2ccc(-c3ccc(N4C[C@H](CO)OC4=O)cc3F)cn2)n1` [AKG-16], the MIC in assay [1] is 0.125 µg/mL (≈ 0.292 µM); in assay [2], 0.25 µg/mL (≈ 0.585 µM); in assay [3], 0.06 µg/mL (≈ 0.14 µM); in [4], 0.06 µg/mL (≈ 0.14 µM); in [5] it was 0.06 µg/mL (≈ 0.14 µM).

As to `CN(C)CCn1nnc(-c2ccc(-c3ccc(N4C[C@H](CN)OC4=O)cc3F)cn2)n1.Cl` [AKG-28], the MIC is at most 0.004 µg/mL in assay [1]; 0.015 µg/mL in assay [2]; 0.015 µg/mL in [3]; 0.015 µg/mL in [4]; 0.015 µg/mL in assay [5]; 0.03 µg/mL in the assay with M. tuberculosis H37Rv.

Take `Cl.Cl.NCCn1nnc(-c2ccc(-c3ccc(N4C[C@H](CN)OC4=O)cc3F)cn2)n1` [AKG-29]: the MIC in [1] was at most 0.03 µg/mL; in [2], 0.125 µg/mL; in assay [3], 0.125 µg/mL; in assay [4], 0.06 µg/mL; in assay [5], 0.06 µg/mL; in the assay on M. tuberculosis H37Rv it was 0.25 µg/mL.

For `CC(=O)NC[C@H]1CN(c2ccc(-c3ccc(-c4nnn(CCN(C)C)n4)nc3)c(F)c2)C(=O)O1` [AKG-38], the MIC in [1] is at most 0.015 µg/mL; in assay [2], 0.03 µg/mL (≈ 0.064 µM); in [3] it was 0.03 µg/mL (≈ 0.064 µM); in [4] it was 0.03 µg/mL (≈ 0.064 µM); in [5], 0.03 µg/mL (≈ 0.064 µM); in the assay with M. tuberculosis H37Rv, 0.03 µg/mL (≈ 0.064 µM).

In the case of `CCN(CC)CCn1nnc(-c2ccc(-c3ccc(N4C[C@H](CNC(C)=O)OC4=O)cc3F)cn2)n1` [AKG-39], the MIC was 0.125 µg/mL (≈ 0.252 µM) in assay [1]; 0.5 µg/mL (≈ 1.01 µM) in assay [2]; 1 µg/mL (≈ 2.01 µM) in [3]; 0.5 µg/mL (≈ 1.01 µM) in assay [4]; 0.25 µg/mL (≈ 0.503 µM) in [5].

As for `CC[C@@H](CO)NCCN[C@@H](CC)CO` [EMB], the “Drug resistance feature of the strain” value is listed as “S” in assay [6]; “R” in [7]; “S” in assay [8]; “S” in assay [9]; “S” in assay [10].

With `NNC(=O)c1ccncc1` [INH], the “MIC, µg/mL in M.tuberculosis strain M70” value in assay [1] is over 2 µg/mL. In addition, in [2], the “MIC, µg/mL in M.tuberculosis strain M28” value is listed as over 2 µg/mL. Besides, the “MIC, µg/mL in M.tuberculosis strain M94” value in assay [3] is over 2 µg/mL. In addition, in assay [4], the “MIC, µg/mL in M.tuberculosis strain M14” value is over 2 µg/mL. In addition, the “MIC, µg/mL in M.tuberculosis strain TN5904” value in assay [5] is on record as 2 µg/mL (≈ 14.6 µM). Also, the “MIC, µg/mL in M.tuberculosis strain H37Rv” value with M. tuberculosis H37Rv was found to be 0.06 µg/mL (≈ 0.438 µM). In addition, the “Drug resistance feature of the strain” value in assay [6], in assay [7], in assay [8], in assay [9] and in assay [10] was “R” throughout.

Regarding `CC(=O)NC[C@H]1CN(c2ccc(N3CCOCC3)c(F)c2)C(=O)O1` [Linezolid], the MIC in assay [1] turned out to be 0.5 µg/mL (≈ 1.48 µM); in [2], 0.5 µg/mL (≈ 1.48 µM); in assay [3], 0.5 µg/mL (≈ 1.48 µM); in [4] it was 0.5 µg/mL (≈ 1.48 µM); in assay [5], 1 µg/mL (≈ 2.96 µM); in the assay on M. tuberculosis H37Rv it was 2 µg/mL (≈ 5.93 µM).

As to `COc1c(N2C[C@@H]3CCCN[C@@H]3C2)c(F)cc2c(=O)c(C(=O)O)cn(C3CC3)c12` [MOX], the MIC worked out at 1 µg/mL (≈ 2.49 µM) in assay [1]; 2 µg/mL (≈ 4.98 µM) in [2]; 0.125 µg/mL (≈ 0.311 µM) in assay [3]; 0.125 µg/mL (≈ 0.311 µM) in assay [4]; 0.125 µg/mL (≈ 0.311 µM) in assay [5]; 0.125 µg/mL (≈ 0.311 µM) with M. tuberculosis H37Rv.

For `NC(=O)c1cnccn1` [PZA], the “Drug resistance feature of the strain” value is recorded as “R” in assay [6]; “R” in assay [7]; “S” in assay [8]; “R” in [9]; “R” in [10].

Consider `CO[C@H]1/C=C/O[C@@]2(C)Oc3c(C)c(O)c4c(O)c(c(/C=N/N5CCN(C)CC5)c(O)c4c3C2=O)NC(=O)/C(C)=C\C=C\[C@H](C)[C@H](O)[C@@H](C)[C@@H](O)[C@@H](C)[C@H](OC(C)=O)[C@@H]1C` [RIF], for which the “MIC, µg/mL in M.tuberculosis strain M70” value in assay [1] is given as over 8 µg/mL. Besides, the “MIC, µg/mL in M.tuberculosis strain M28” value in assay [2] was over 8 µg/mL. For the same molecule, the “MIC, µg/mL in M.tuberculosis strain M14” value in assay [4] is 0.06 µg/mL (≈ 0.0729 µM). Besides, the “MIC, µg/mL in M.tuberculosis strain TN5904” value in [5] is over 8 µg/mL. Further, the “MIC, µg/mL in M.tuberculosis strain H37Rv” value with M. tuberculosis H37Rv was determined as 0.06 µg/mL (≈ 0.0729 µM). Also, the “Drug resistance feature of the strain” value in assay [6] was “R”; in assay [7] it was “R”; in assay [8], “S”; in assay [9], “S”; in assay [10] it was “R”.

`CN[C@@H]1[C@H](O[C@H]2[C@H](O[C@H]3[C@H](O)[C@@H](O)[C@H](N=C(N)N)[C@@H](O)[C@@H]3N=C(N)N)O[C@@H](C)[C@]2(O)C=O)O[C@@H](CO)[C@H](O)[C@H]1O` [STR]: in assay [1], the “MIC, µg/mL in M.tuberculosis strain M70” value was 2 µg/mL (≈ 3.44 µM). In addition, the “MIC, µg/mL in M.tuberculosis strain M28” value in [2] turned out to be 0.125 µg/mL (≈ 0.215 µM). Moreover, in assay [3], the “MIC, µg/mL in M.tuberculosis strain M94” value is on record as over 8 µg/mL. For the same molecule, the “MIC, µg/mL in M.tuberculosis strain M14” value in assay [4] is listed as over 8 µg/mL. The “MIC, µg/mL in M.tuberculosis strain TN5904” value in assay [5] is listed as 1 µg/mL (≈ 1.72 µM). Moreover, in the assay with M. tuberculosis H37Rv, the “MIC, µg/mL in M.tuberculosis strain H37Rv” value is 0.5 µg/mL (≈ 0.86 µM). Besides, the “Drug resistance feature of the strain” value in [6] is “R”; in assay [7] it was “S”; in assay [8] it was “R”; in [9], “R”; in assay [10], “R”.
